Patent US20170029355A1, “LABILE ESTERS OF AGROCHEMICALS FOR CONTROLLED RELEASE AND REDUCTION OF OFF-SITE MOVEMENT” (Monsanto Technology LLC, priority 2011, published 2017)
Where two headings read alike, the source gives them in different places.

Key:
velvetleaf [1] = assay: Greenhouse post-emergent control of velvetleaf by emulsifiable concentrates (Example 37); format: in vivo; conditions: for pest or weed control at 140 g/ha / pest or weed control at 280 g/ha / pest or weed control at 420 g/ha / pest or weed control at 560 g/ha: Abutilon theophrasti, post-emergence, 504 h; for pest or weed control at 140 g/ha: read-out: % Control of velvetleaf, 140 g/ha; for pest or weed control at 280 g/ha: read-out: % Control of velvetleaf, 280 g/ha; for pest or weed control at 420 g/ha: read-out: % Control of velvetleaf, 420 g/ha; for pest or weed control at 560 g/ha: read-out: % Control of velvetleaf, 560 g/ha
Method in brief: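 Photo-labile dicamba ester emulsifiable concentrates sprayed post-emergence in the greenhouse on velvetleaf 10-15 cm tall at 140, 280, 420 and 560 g dicamba equivalent per hectare. Percent control scored three weeks after treatment.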

hemp sesbania = assay: Field testing of emulsifiable concentrates, post-emergent control (Example 40); format: in vivo; conditions: for % control 19 days after treatment, 280 g/ha, Hemp sesbania: 280 g dicamba acid equivalent per hectare; for % control 19 days after treatment, 560 g/ha, Hemp sesbania: 560 g dicamba acid equivalent per hectare
Description: (§1) Three dicamba esters, 30a, 32a, and 36a, were formulated as emulsifiable concentrates for field testing. All surfactants are commercial materials from Stepan.
(§2) The formulations were tested in the field. Locations and timing were identical for the three esters, but differed slightly for the diglycolamine control. The esters were compared to the diglycolamine salt of dicamba (CLARITY™) for post-emergent control of three broadleaf weeds: velvetleaf, morning glory, and hemp sesbania. Rates of 280 and 560 g dicamba acid equivalent per hectare were used.

morning glory = assay: as above; format: in vivo; conditions: for % control 19 days after treatment, 280 g/ha, Morning glory: 280 g dicamba acid equivalent per hectare; for % control 19 days after treatment, 560 g/ha, Morning glory: 560 g dicamba acid equivalent per hectare
Description: as §1, §2

velvetleaf [2] = assay: as above; format: in vivo; conditions: for % control 19 days after treatment, 280 g/ha, Velvetleaf: 280 g dicamba acid equivalent per hectare; for % control 19 days after treatment, 560 g/ha, Velvetleaf: 560 g dicamba acid equivalent per hectare
Description: as §1, §2

[3] = tested on: three broadleaf weeds: velvetleaf, morning glory, and hemp sesbania; assay: Field testing of Example 40, overall post-emergent activity in words; format: in vivo; conditions: 280 and 560 g dicamba acid equivalent per hectare
Description: as §1, §2

[4] = In vitro photo-release and hydrolytic release of dicamba in an aqueous medium (Example 35); format: physicochemical; conditions: 0.01 mM ester, 35° C.
Description: This Example describes the determination of photo-lability and hydrolytic lability of dicamba esters in an aqueous medium. 1 mM solutions of the esters were prepared in acetonitrile (or […] solutions of dicamba diesters). The solutions were then diluted with deionized water to a concentration of 0.01 mM (or 0.005 mM for diesters). The solutions were then transferred to quartz tubes and amber bottles and held in a growth chamber by the procedure of Example 26. A 14-hour day was generally used at a constant temperature of 35° C. Hydrolytic activity was assessed by measuring the increase in dicamba concentration after day zero in the amber (dark) bottles. […] Photolysis manifested itself as increased conversion in the quartz tubes compared to the dark control.

broadleaf weeds = assay: Control of broadleaf weeds by ester concentrates (statements of the description); format: in vivo; conditions: emulsifiable and suspension concentrates; Sesbania macrocarpa, morning glory, velvetleaf, Palmer amaranth, fat hen, sicklepod
soybeans = assay: Humidome volatility injury, ester 32a emulsifiable concentrate (Example 32); conditions: humidome, dicamba 0.6% and glyphosate 1.2% acid equivalent, 14 days after treatment
Source text: […] The mixtures were sprayed at a 10 gallon per acre (93.5 liters per hectare) rate on soil in a plastic container (“humidome”) with a transparent lid. One soil container was sprayed with water as a control. Four glyphosate-tolerant, dicamba-sensitive soy plants between V2 and V3 stage were immediately placed on the sprayed soil and the domes attached to the trays with binder clips. The soy plants were in pots placed directly on the soil but with aluminum foil wrapped around the bottom to prevent uptake of dicamba or dicamba esters through the roots.
The closed containers were held for 24 hours in a growth chamber which was maintained at 35° C. with 40% relative humidity. […] At this time plant injury and growth stage were assessed compared to the control treated with water only.

| SMILES | % control 19 days after treatment, 280 g/ha, Hemp sesbania (hemp sesbania) | % control 19 days after treatment, 560 g/ha, Hemp sesbania (hemp sesbania) | % control 19 days after treatment, 280 g/ha, Morning glory (morning glory) | % control 19 days after treatment, 560 g/ha, Morning glory (morning glory) | % control 19 days after treatment, 280 g/ha, Velvetleaf (velvetleaf [2]) | % control 19 days after treatment, 560 g/ha, Velvetleaf (velvetleaf [2]) | post-emergent activity compared with the dicamba salt, in words [3] | Conversion to Dicamba, Dark, Day 0 ([4]; amber (dark) bottle) | Conversion to Dicamba, Dark, Day 3 ([4]; amber (dark) bottle) | Conversion to Dicamba, Dark, Day 14 ([4]; amber (dark) bottle) | Conversion to Dicamba, Dark, Day 21 ([4]; amber (dark) bottle) | Conversion to Dicamba, Dark, Day 28 ([4]; amber (dark) bottle) | Conversion to Dicamba, Light, Day 0 ([4]; quartz tube, 14-hour day) | Conversion to Dicamba, Light, Day 3 ([4]; quartz tube, 14-hour day) | Conversion to Dicamba, Light, Day 14 ([4]; quartz tube, 14-hour day) | Conversion to Dicamba, Light, Day 21 ([4]; quartz tube, 14-hour day) | Conversion to Dicamba, Light, Day 28 ([4]; quartz tube, 14-hour day) | control of a number of broadleaf weeds in field testing, in words (broadleaf weeds) | also measured |
| --- | --- | --- | --- | --- | --- | --- | --- | --- | --- | --- | --- | --- | --- | --- | --- | --- | --- | --- | --- |
| COc1ccc(OC(=O)c2c(Cl)ccc(Cl)c2OC)cc1 [Ester 30a, 4-methoxyphenyl ester of dicamba] | 50 ± 20% | 67 ± 13% | 79 ± 7% | 78 ± 10% | 56 ± 25% | 65 ± 25% | less efficacious | 6% | 5% | 17% | 17% | 19% | 6% | 14% | 23% | 29% | 36% | proven effective | pest or weed control at 140 g/ha (velvetleaf [1]; greenhouse, 140 g/ha, Example 37): 19.2%; pest or weed control at 280 g/ha (velvetleaf [1]; greenhouse, 280 g/ha, Example 37): 12.5%; pest or weed control at 420 g/ha (velvetleaf [1]; greenhouse, 420 g/ha, Example 37): 18.3%; pest or weed control at 560 g/ha (velvetleaf [1]; greenhouse, 560 g/ha, Example 37): 15% |
| COc1c(Cl)ccc(Cl)c1C(=O)Oc1ccc(=O)n(CCC(C)=O)n1 [Ester 32a] | 76 ± 5% | 91 ± 8% | 70 ± 24% | 87 ± 10% | 59 ± 28% | 68 ± 26% | intermediate activity | 5% | 17% | 41% | 55% | 70% | 5% | 18% | 44% | 50% | 59% | proven effective | pest or weed control at 140 g/ha (velvetleaf [1]): 12.5%; pest or weed control at 280 g/ha (velvetleaf [1]): 19.2%; pest or weed control at 420 g/ha (velvetleaf [1]): 33.3%; pest or weed control at 560 g/ha (velvetleaf [1]): 37.5%; post-emergent efficacy on velvetleaf compared with the salt, in words (velvetleaf [1]; greenhouse, emulsifiable concentrates): reduced post-emergent efficacy; Conversion to Dicamba, Dark, Day 1 ([4]; amber (dark) bottle, Day 1): 12%; Conversion to Dicamba, Dark, Day 2 ([4]; amber (dark) bottle, Day 2): 14%; Conversion to Dicamba, Dark, Day 4 ([4]; amber (dark) bottle, Day 4): 22%; Conversion to Dicamba, Dark, Day 7 ([4]; amber (dark) bottle, Day 7): 34%; Conversion to Dicamba, Light, Day 1 ([4]; quartz tube, 14-hour day, Day 1): 14%; Conversion to Dicamba, Light, Day 2 ([4]; quartz tube, 14-hour day, Day 2): 16%; Conversion to Dicamba, Light, Day 4 ([4]; quartz tube, 14-hour day, Day 4): 22%; Conversion to Dicamba, Light, Day 7 ([4]; quartz tube, 14-hour day, Day 7): 27%; average injury to soybeans (soybeans): 19% |
